# Test results: ChEMBL document CHEMBL3638976, “Azetidine derivatives” (2014)
# Assays:
# [1] = target: Cathepsin S (Homo sapiens, UniProt P25774); assay: (§1) Enzyme Inhibition Assay: Enzyme activity is measured by observing the increase in fluorescence intensity caused by cleavage of a peptide substrate containing a fluorophore whose emission is quenched in the intact peptide.Assay buffer: 100 mM potassium phosphate pH 6.5, EDTA-Na 5 mM, Triton X-100 0.001%, DTT 5 mM.Enzymes (all at 1 nM): human and mouse Cathepsin S, Cat K, Cat B, Cat L.Substrate (20 μM): Z-Val-Val-Arg-AMC, except for Cat K which uses Z-Leu-Arg-AMC (both from Bachem).Z=Benzyloxycarbonyl.AMC=7-Amino-4-Methyl-Coumarin.DTT=dithiothreitol.Final volume: 100 μL.Excitation 360 nm, Emission 465 nm.Enzyme is added to the substance dilutions in 96-well microtitre plates and the reaction is started with substrate. Fluorescence emission is measured over 20 minutes, during which time a linear increase is observed in the absence of inhibitor.
# Sequence of Cathepsin S (P25774 whole entry): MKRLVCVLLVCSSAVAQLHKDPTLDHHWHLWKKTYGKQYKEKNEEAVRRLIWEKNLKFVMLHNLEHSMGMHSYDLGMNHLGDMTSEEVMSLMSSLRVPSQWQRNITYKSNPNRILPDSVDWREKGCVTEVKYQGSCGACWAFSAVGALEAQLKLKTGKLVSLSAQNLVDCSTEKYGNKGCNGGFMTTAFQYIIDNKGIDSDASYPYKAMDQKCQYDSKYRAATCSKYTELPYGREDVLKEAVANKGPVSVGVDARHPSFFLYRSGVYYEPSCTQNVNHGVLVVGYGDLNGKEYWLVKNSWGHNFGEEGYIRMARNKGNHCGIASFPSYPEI
# [2] = target: Procathepsin L (Homo sapiens, UniProt P07711); assay: as §1
# Sequence of Procathepsin L (P07711 whole entry): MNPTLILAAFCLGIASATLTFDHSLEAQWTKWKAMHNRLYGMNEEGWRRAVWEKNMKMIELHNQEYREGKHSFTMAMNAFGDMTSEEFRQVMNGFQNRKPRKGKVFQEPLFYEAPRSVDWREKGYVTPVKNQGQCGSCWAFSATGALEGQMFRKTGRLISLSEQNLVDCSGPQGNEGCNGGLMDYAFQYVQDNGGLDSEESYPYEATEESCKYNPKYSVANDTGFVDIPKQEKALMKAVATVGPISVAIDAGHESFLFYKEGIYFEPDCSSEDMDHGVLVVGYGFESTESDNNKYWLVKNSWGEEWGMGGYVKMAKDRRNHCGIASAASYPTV
IC50 [1],IC50 [2],SMILES
5.5 nM,188 nM,C[C@H](Oc1ccc(S(=O)(=O)[C@@H]2C[C@@H](C(=O)NC3(C#N)CC3)N(C(=O)C3(c4ncc(Br)cc4F)CCN3C(=O)OC(C)(C)C)C2)c(Cl)c1)C(F)(F)F (stereo partly drawn)
2.13 nM,16.6 nM,C[C@H](Oc1ccc(S(=O)(=O)[C@@H]2C[C@@H](C(=O)NC3(C#N)CC3)N(C(=O)C3(c4ncc(Br)cc4F)CN(C)C3)C2)c(Cl)c1)C(F)(F)F
1.55 nM,523 nM,Cc1cc(-c2ccc(S(=O)(=O)[C@@H]3C[C@@H](C(=O)NC4(C#N)CC4)N(C(=O)C4(c5ncc(Cl)cc5F)CCN4C(=O)OC(C)(C)C)C3)c(Cl)c2)ccn1 (stereo partly drawn)
1.12 nM,1160 nM,Cn1cc(-c2ccc(S(=O)(=O)[C@@H]3C[C@@H](C(=O)NC4(C#N)CC4)N(C(=O)C4(c5ncc(Br)cc5F)CCN4C(=O)OC(C)(C)C)C3)c(Cl)c2)cn1 (stereo partly drawn)
